Reference: PubChem BioAssay AID1963854 (Molecular Pharmacology Branch, DTP, NCI, 2024)
Values joined by “and” are separate entries in the source; they are usually repeats but may differ in a detail not shown here. Equal entries are not always repeated.

Test system: 186277-243-T-J2-PDC complex spheroid viability
Assay: Anticancer human tumor 186277-243-T-J2-PDC patient-derived colon adenocarcinoma cell line growth inhibition [POLQ]
Conditions: for viability, T/C: stronger effect = lower value
Method: Multicellular complex tumor spheroid response to Polymerase (POL) inhibitors (novobiocin, ART-558, RP6685) in combination with a variety of drugs and investigational agents in selected tumor cell lines
The POL inhibitors (novobiocin, ART-558, and RP6685) were evaluated both individually and in combination with standard of care and investigational anticancer small molecules within a complex spheroid model of solid tumors. . Complex spheroids include a stromal component modeled by human endothelial cells (HUVEC) and fibroblasts modeled by human mesenchymal stem cells (MSCs). The concentration ranges selected for each drug and investigational agent were based upon clinically achievable concentrations if the clinical Cmax of the agent was known.
Compounds. The drugs and investigational agents: novobiocin (NSC847541), ART-558 (NSC835418), RP-6685 (NSC848927), peposertib (NSC802822), ceralasertib (NSC780249), elimusertib (NSC800525), camonsertib (NSC841442), AZD-1390 (NSC803789), olaparib (NSC753686), talazoparib (NSC767125), rucaparib (NSC756644), sotorasib (NSC818433), MRTX-1133 (NSC836407), SN-38 (NSC673596), topotecan (NSC609699), epotoside (NSC141540), doxorubicin (NSC123127), gemcitabine (NSC613327), 5-fluorouracil (NSC19893), paclitaxel (NSC125973), vemurafenib (NSC761431), MSA-2 (NSC828583), SN-011 (NSC837082), adavosertib (NSC754352), prexasertib (NSC758257), carboplatin (NSC241240) and oxaliplatin (NSC266046), were obtained from the National Cancer Institute (NCI) Developmental Therapeutics Program Chemical Repository (21). The FDA-approved anticancer drug set is available from the Developmental Therapeutics Program at https://dtp.cancer.gov/organization/dscb/obtaining/. […] The stock solutions were prepared in dimethyl sulfoxide (DMSO, Sigma-Aldrich, St. Louis, MO, cat. D2650), except for the platinum compounds which were prepared in saline (Quality Biological, Gaithersburg, MD, cat. 114-055-101), at 800-fold the tested concentration and stored at -70 degrees C prior to their use. All drugs and investigational agents were tested over a range starting from a high concentration at or near the clinical Cmax and decreasing in half-log increments. If the clinical Cmax for an agent had not been determined, the highest concentration tested was 10 microM, except for SN-38, which was tested at a high concentration of 1 microM.
Cell Culture. All cells were maintained in an incubator at 37 degrees C and 5% CO2 with 95% humidity. The PDC lines were cultured according to standard operating procedures established by the NCI PDMR (https://pdmr.cancer.gov). Table 3 of the manuscript, lists the cell lines along with the number of the three cell types plated to form the mct-spheroids and media for tumor cell growth. After thawing, all PDC lines, except 997537-175-T-J1-PDC and 415267-285-R-J2-PDC, were cultured in Matrigel-coated flasks prepared with a working solution of 1X Ham's F-12 nutrient mix, without supplementation (Thermo Fisher Scientific, cat. 11765054), 100 U/mL penicillin-streptomycin (Thermo Fisher Scientific, cat. 15140122), and 2.5% Matrigel (Corning Inc., Corning, NY, cat. 354248) for the first three passages. The two PDC lines 997537-175-T-J1-PDC and 415267-285-R-J2-PDC were cultured on uncoated flasks. The 857933-349-R-J2-PDC line was cultured in 6C/Colon 1B media containing advanced DMEM/F-12 (Thermo Fisher Scientific, cat. 12634028), 10 mM HEPES (Thermo Fisher Scientific, cat. 15630080), 1X GlutaMAX supplement (Thermo Fisher Scientific, cat. 35050061), 0.1 mg/mL primocin (InvivoGen, San Diego, CA, cat. ant-pm-2), 10% defined fetal bovine serum, heat inactivated (HyClone Laboratories Inc., Logan, UT, cat. SH30070.03HI), 50% L-WRN conditioned media (ATCC, cat. CRL-3276), 1.25 mM N-Acetyl-L-cysteine (Sigma-Aldrich, cat. A9165), 10 mM nicotinamide (Sigma-Aldrich, cat. N0636), 1X B-27 supplement (Thermo Fisher Scientific, cat. 17504044), 1X N-2 supplement (Thermo Fisher Scientific, cat. […]

[1] = curve of first compound, second compound 0.0316 µM
[2] = curve of first compound, second compound 0.1 µM
[3] = curve of first compound, second compound 0.316 µM
[4] = curve of first compound, second compound 1 µM
[5] = curve of first compound, second compound 3.16 µM
[6] = curve of first compound, second compound 10 µM
[7] = second compound 0.0316 µM, first compound 0.0316 µM
[8] = second compound 0.0316 µM, first compound 0.1 µM
[9] = second compound 0.0316 µM, first compound 0.316 µM
[10] = second compound 0.0316 µM, first compound 1 µM
[11] = second compound 0.0316 µM, first compound 3.16 µM
[12] = second compound 0.0316 µM, first compound 10 µM
[13] = second compound 0.1 µM, first compound 0.0316 µM
[14] = second compound 0.1 µM, first compound 0.1 µM
[15] = second compound 0.1 µM, first compound 0.316 µM
[16] = second compound 0.1 µM, first compound 1 µM
[17] = second compound 0.1 µM, first compound 3.16 µM
[18] = second compound 0.1 µM, first compound 10 µM
[19] = second compound 0.316 µM, first compound 0.0316 µM
[20] = second compound 0.316 µM, first compound 0.1 µM
[21] = second compound 0.316 µM, first compound 0.316 µM
[22] = second compound 0.316 µM, first compound 1 µM
[23] = second compound 0.316 µM, first compound 3.16 µM
[24] = second compound 0.316 µM, first compound 10 µM
[25] = second compound 1 µM, first compound 0.0316 µM
[26] = second compound 1 µM, first compound 0.1 µM
[27] = second compound 1 µM, first compound 0.316 µM
[28] = second compound 1 µM, first compound 1 µM
[29] = second compound 1 µM, first compound 3.16 µM
[30] = second compound 1 µM, first compound 10 µM
[31] = second compound 3.16 µM, first compound 0.0316 µM
[32] = second compound 3.16 µM, first compound 0.1 µM
[33] = second compound 3.16 µM, first compound 0.316 µM
[34] = second compound 3.16 µM, first compound 1 µM
[35] = second compound 3.16 µM, first compound 3.16 µM
[36] = second compound 3.16 µM, first compound 10 µM
[37] = second compound 10 µM, first compound 0.0316 µM
[38] = second compound 10 µM, first compound 0.1 µM
[39] = second compound 10 µM, first compound 0.316 µM
[40] = second compound 10 µM, first compound 1 µM
[41] = second compound 10 µM, first compound 3.16 µM
[42] = second compound 10 µM, first compound 10 µM
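Also: spheroids exposed to compounds for seven days.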
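For viability, T/C in this document: 100% = DMSO vehicle control viability.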

CC(C)n1c(=O)n(C)c2cnc3cc(F)c(-c4ccc(OCCCN5CCCCC5)nc4)cc3c21 + Cc1cccc(N(C)C(=O)C2C(O)CCN2c2nc(C)cc(C(F)(F)F)c2C#N)c1
IC50 [1]: > 10 µM
IC50 [2]: > 10 µM
IC50 [3]: > 10 µM
IC50 [4]: > 10 µM
IC50 [5]: > 10 µM
IC50 [6]: > 10 µM
viability, T/C [7]: 101%
viability, T/C [8]: 97.7%
viability, T/C [9]: 94.8%
viability, T/C [10]: 90.8%
viability, T/C [11]: 119%
viability, T/C [12]: 100%
viability, T/C [13]: 88.8%
viability, T/C [14]: 93.2%
viability, T/C [15]: 103%
viability, T/C [16]: 92.3%
viability, T/C [17]: 98%
viability, T/C [18]: 88.2%
viability, T/C [19]: 90.6%
viability, T/C [20]: 95.6%
viability, T/C [21]: 94%
viability, T/C [22]: 87.6%
viability, T/C [23]: 119%
viability, T/C [24]: 93.9%
viability, T/C [25]: 104%
viability, T/C [26]: 107%
viability, T/C [27]: 99.6%
viability, T/C [28]: 102%
viability, T/C [29]: 102%
viability, T/C [30]: 84.5%
viability, T/C [31]: 84.3%
viability, T/C [32]: 86.8%
viability, T/C [33]: 99.4%
viability, T/C [34]: 96%
viability, T/C [35]: 107%
viability, T/C [36]: 97.2%
viability, T/C [37]: 112%
viability, T/C [38]: 94.6%
viability, T/C [39]: 103%
viability, T/C [40]: 114%
viability, T/C [41]: 94.9%
viability, T/C [42]: 82.7%

CC(=O)O[C@H]1C(=O)[C@@]2(C)[C@H]([C@H](OC(=O)c3ccccc3)[C@]3(O)C[C@H](OC(=O)[C@H](O)[C@@H](NC(=O)c4ccccc4)c4ccccc4)C(C)=C1C3(C)C)[C@]1(OC(C)=O)CO[C@@H]1C[C@@H]2O
viability, T/C (compound 0.00949 µM): 38.5% and 44.7% and 19.1%
viability, T/C (compound 0.03 µM): 10.6% and 11.3% and 5.03%
viability, T/C (compound 0.0949 µM): 7.36% and 7.77% and 3.51%
viability, T/C (compound 0.3 µM): 5.49% and 5.99% and 2.78%
viability, T/C (compound 0.949 µM): 5.37% and 6% and 2.77%
viability, T/C (compound 3 µM): 4.97% and 5.56% and 2.45%
IC50 (curve of compound): < 0.00949 µM

COc1cc(C2c3cc4c(cc3C(OC3OC5COC(C)OC5C(O)C3O)C3COC(=O)C23)OCO4)cc(OC)c1O (stereo unspecified) + Cc1cccc(N(C)C(=O)C2C(O)CCN2c2nc(C)cc(C(F)(F)F)c2C#N)c1
IC50 [1]: 1.03 µM
IC50 [2]: 0.89 µM
IC50 [3]: 1.07 µM
IC50 [4]: 0.976 µM
IC50 [5]: 0.749 µM
IC50 [6]: 0.528 µM
viability, T/C [7]: 102%
viability, T/C [8]: 104%
viability, T/C [9]: 79.3%
viability, T/C [10]: 48.8%
viability, T/C [11]: 30.6%
viability, T/C [12]: 14.3%
viability, T/C [13]: 106%
viability, T/C [14]: 117%
viability, T/C [15]: 76%
viability, T/C [16]: 47.5%
viability, T/C [17]: 29.2%
viability, T/C [18]: 14.4%
viability, T/C [19]: 105%
viability, T/C [20]: 99.2%
viability, T/C [21]: 80.5%
viability, T/C [22]: 48.4%
viability, T/C [23]: 31.7%
viability, T/C [24]: 14.5%
viability, T/C [25]: 93.8%
viability, T/C [26]: 115%
viability, T/C [27]: 80.7%
viability, T/C [28]: 46%
viability, T/C [29]: 36.1%
viability, T/C [30]: 12.7%
viability, T/C [31]: 105%
viability, T/C [32]: 124%
viability, T/C [33]: 66.7%
viability, T/C [34]: 46.6%
viability, T/C [35]: 27.2%
viability, T/C [36]: 13.4%
viability, T/C [37]: 99.6%
viability, T/C [38]: 106%
viability, T/C [39]: 57.2%
viability, T/C [40]: 37.6%
viability, T/C [41]: 23.3%
viability, T/C [42]: 12.2%
